In ChEMBL document CHEMBL3885881, “DrugMatrix”:

Organism: Rattus norvegicus
Assay: DrugMatrix - Regimen: Daily Repeat
Assay type: toxicity, organism-based, Sprague-Dawley
Parameters: regimen Daily Repeat, gender Male, age 6-8 weeks
Settings: in vivo, po, route oral GAVAGE, […]; for ABSOLUTE BASOPHIL / BASOPHIL / EOSINOPHIL / NUCLEATED RED BLOOD CELLS / MONOCYTE / ABSOLUTE EOSINOPHIL / ABSOLUTE LYMPHOCYTE / ABSOLUTE MONOCYTE / ABSOLUTE SEGMENTED NEUTROPHIL / ERYTHROCYTE COUNT / HEMATOCRIT / HEMOGLOBIN / LEUKOCYTE COUNT / LYMPHOCYTE / MEAN CORPUSCULAR HEMOGLOBIN / MEAN CORPUSCULAR HEMOGLOBIN CONCENTRATION / MEAN CORPUSCULAR VOLUME / NEUTROPHIL / PLATELET COUNT: tissue Blood; for TOTAL BILIRUBIN / URIC ACID / ALANINE AMINOTRANSFERASE / ALBUMIN / ALKALINE PHOSPHATASE / ASPARTATE AMINOTRANSFERASE / BLOOD UREA NITROGEN / CARBON DIOXIDE / CHLORIDE / CHOLESTEROL / CREATINE PHOSPHOKINASE / CREATININE / GLUCOSE / LACTATE DEHYDROGENASE / LIPASE / PHOSPHORUS / POTASSIUM / SODIUM / TOTAL PROTEIN: tissue Plasma
[1] = 0 mg/kg, 72 h, dose level Control, time 3 day
[2] = 0 mg/kg, 120 h, dose level Control, time 5 day
[3] = 10 mg/kg, 72 h, dose level M1, time 3 day
[4] = 10 mg/kg, 120 h, dose level M1, time 5 day
[5] = 650 mg/kg, 72 h, dose level High, time 3 day
[6] = 650 mg/kg, 120 h, dose level High, time 5 day
[7] = 72 h, dose 6.5 mg/Kg, dose level Low, time 3 day
[8] = 120 h, dose 6.5 mg/Kg, dose level Low, time 5 day

SMILES: O=C(c1ccc(OCCN2CCCCC2)cc1)c1c(-c2ccc(O)cc2)sc2cc(O)ccc12 [RALOXIFENE]
- ABSOLUTE BASOPHIL [1]: 0 CELLS/uL
- BASOPHIL [1]: 0%
- EOSINOPHIL [1]: 0.17%
- NUCLEATED RED BLOOD CELLS [1]: 0 /100WBC
- ABSOLUTE BASOPHIL [2]: 0 CELLS/uL
- BASOPHIL [2]: 0%
- MONOCYTE [2]: 1.17%
- TOTAL BILIRUBIN [2]: 0.1 mg/dL
- URIC ACID [2]: 0.52 mg/dL
- ABSOLUTE BASOPHIL [3]: 0 CELLS/uL
- ABSOLUTE EOSINOPHIL [3]: 29.33 CELLS/uL
- ABSOLUTE LYMPHOCYTE [3]: 7440 CELLS/uL
- ABSOLUTE MONOCYTE [3]: 116 CELLS/uL
- ABSOLUTE SEGMENTED NEUTROPHIL [3]: 681.33 CELLS/uL
- BASOPHIL [3]: 0%
- EOSINOPHIL [3]: 0.33%
- ERYTHROCYTE COUNT [3]: 5.44 x10E6/uL
- HEMATOCRIT [3]: 34.47%
- HEMOGLOBIN [3]: 13.3 G/DL
- LEUKOCYTE COUNT [3]: 8.27 x10E3/uL
- LYMPHOCYTE [3]: 90.33%
- MEAN CORPUSCULAR HEMOGLOBIN [3]: 24.53 pg
- MEAN CORPUSCULAR HEMOGLOBIN CONCENTRATION [3]: 38.6 G/DL
- MEAN CORPUSCULAR VOLUME [3]: 63.53 fL
- MONOCYTE [3]: 1.33%
- NEUTROPHIL [3]: 8%
- NUCLEATED RED BLOOD CELLS [3]: 0.33 /100WBC
- PLATELET COUNT [3]: 1223 x10E3/uL
- ALANINE AMINOTRANSFERASE [3]: 53.67 u/L
- ALBUMIN [3]: 4.43 G/DL
- ALKALINE PHOSPHATASE [3]: 398.33 u/L
- ASPARTATE AMINOTRANSFERASE [3]: 90.67 u/L
- BLOOD UREA NITROGEN [3]: 10 mg/dL
- CARBON DIOXIDE [3]: 31.67 mmol/L
- CHLORIDE [3]: 101.67 MEQ/L
- CHOLESTEROL [3]: 52.67 mg/dL
- CREATINE PHOSPHOKINASE [3]: 300.33 u/L
- CREATININE [3]: 0.24 mg/dL
- GLUCOSE [3]: 151.33 mg/dL
- LACTATE DEHYDROGENASE [3]: 123 u/L
- LIPASE [3]: 9.33 u/L
- PHOSPHORUS [3]: 10.93 mg/dL
- POTASSIUM [3]: 5.67 MEQ/L
- SODIUM [3]: 147.7 MEQ/L
- TOTAL BILIRUBIN [3]: 0.13 mg/dL
- TOTAL PROTEIN [3]: 6.5 G/DL
- URIC ACID [3]: 0.87 mg/dL
- ABSOLUTE BASOPHIL [4]: 0 CELLS/uL
- ABSOLUTE EOSINOPHIL [4]: 34 CELLS/uL
- ABSOLUTE LYMPHOCYTE [4]: 8594.67 CELLS/uL
- ABSOLUTE MONOCYTE [4]: 97 CELLS/uL
- ABSOLUTE SEGMENTED NEUTROPHIL [4]: 974.33 CELLS/uL
- BASOPHIL [4]: 0%
- EOSINOPHIL [4]: 0.33%
- ERYTHROCYTE COUNT [4]: 5.62 x10E6/uL
- HEMATOCRIT [4]: 34.3%
- HEMOGLOBIN [4]: 13.33 G/DL
- LEUKOCYTE COUNT [4]: 9.7 x10E3/uL
- LYMPHOCYTE [4]: 89%
- MEAN CORPUSCULAR HEMOGLOBIN [4]: 23.8 pg
- MEAN CORPUSCULAR HEMOGLOBIN CONCENTRATION [4]: 38.93 G/DL
- MEAN CORPUSCULAR VOLUME [4]: 61.13 fL
- MONOCYTE [4]: 1%
- NEUTROPHIL [4]: 9.67%
- NUCLEATED RED BLOOD CELLS [4]: 0 /100WBC
- PLATELET COUNT [4]: 1211.33 x10E3/uL
- ALANINE AMINOTRANSFERASE [4]: 42.33 u/L
- ALBUMIN [4]: 4.5 G/DL
- ALKALINE PHOSPHATASE [4]: 301.33 u/L
- ASPARTATE AMINOTRANSFERASE [4]: 77.67 u/L
- BLOOD UREA NITROGEN [4]: 9 mg/dL
- CARBON DIOXIDE [4]: 28.67 mmol/L
- CHLORIDE [4]: 102 MEQ/L
- CHOLESTEROL [4]: 50 mg/dL
- CREATINE PHOSPHOKINASE [4]: 198.67 u/L
- CREATININE [4]: 0.33 mg/dL
- GLUCOSE [4]: 168.33 mg/dL
- LACTATE DEHYDROGENASE [4]: 130.67 u/L
- LIPASE [4]: 8.33 u/L
- PHOSPHORUS [4]: 12.1 mg/dL
- POTASSIUM [4]: 4.86 MEQ/L
- SODIUM [4]: 146.9 MEQ/L
- TOTAL BILIRUBIN [4]: 0.1 mg/dL
- TOTAL PROTEIN [4]: 6.33 G/DL
- URIC ACID [4]: 0.77 mg/dL
- ABSOLUTE BASOPHIL [5]: 0 CELLS/uL
- BASOPHIL [5]: 0%
- NUCLEATED RED BLOOD CELLS [5]: 0 /100WBC
- LIPASE [5]: 10.33 u/L
- URIC ACID [5]: 0.67 mg/dL
- ABSOLUTE BASOPHIL [6]: 0 CELLS/uL
- BASOPHIL [6]: 0%
- NUCLEATED RED BLOOD CELLS [6]: 0 /100WBC
- ABSOLUTE BASOPHIL [7]: 0 CELLS/uL
- ABSOLUTE EOSINOPHIL [7]: 59.33 CELLS/uL
- ABSOLUTE LYMPHOCYTE [7]: 5494.67 CELLS/uL
- ABSOLUTE MONOCYTE [7]: 60.33 CELLS/uL
- ABSOLUTE SEGMENTED NEUTROPHIL [7]: 452.33 CELLS/uL
- BASOPHIL [7]: 0%
- EOSINOPHIL [7]: 0.67%
- ERYTHROCYTE COUNT [7]: 5.5 x10E6/uL
- HEMATOCRIT [7]: 35.2%
- HEMOGLOBIN [7]: 13.7 G/DL
- LEUKOCYTE COUNT [7]: 6.07 x10E3/uL
- LYMPHOCYTE [7]: 90.33%
- MEAN CORPUSCULAR HEMOGLOBIN [7]: 24.87 pg
- MEAN CORPUSCULAR HEMOGLOBIN CONCENTRATION [7]: 38.93 G/DL
- MEAN CORPUSCULAR VOLUME [7]: 63.93 fL
- MONOCYTE [7]: 1.33%
- NEUTROPHIL [7]: 7.67%
- NUCLEATED RED BLOOD CELLS [7]: 0.67 /100WBC
- PLATELET COUNT [7]: 1046.33 x10E3/uL
- ALANINE AMINOTRANSFERASE [7]: 63 u/L
- ALBUMIN [7]: 4.13 G/DL
- ALKALINE PHOSPHATASE [7]: 536.33 u/L
- ASPARTATE AMINOTRANSFERASE [7]: 92 u/L
- BLOOD UREA NITROGEN [7]: 8.67 mg/dL
- CARBON DIOXIDE [7]: 29.67 mmol/L
- CHLORIDE [7]: 98.33 MEQ/L
- CHOLESTEROL [7]: 41 mg/dL
- CREATINE PHOSPHOKINASE [7]: 405 u/L
- CREATININE [7]: 0.12 mg/dL
- GLUCOSE [7]: 157 mg/dL
- LACTATE DEHYDROGENASE [7]: 73.33 u/L
- LIPASE [7]: 9.67 u/L
- PHOSPHORUS [7]: 10.5 mg/dL
- POTASSIUM [7]: 5.24 MEQ/L
- SODIUM [7]: 143.33 MEQ/L
- TOTAL BILIRUBIN [7]: 0.13 mg/dL
- TOTAL PROTEIN [7]: 6.07 G/DL
- URIC ACID [7]: 0.63 mg/dL
- ABSOLUTE BASOPHIL [8]: 0 CELLS/uL
- ABSOLUTE EOSINOPHIL [8]: 0 CELLS/uL
- ABSOLUTE LYMPHOCYTE [8]: 6955.67 CELLS/uL
- ABSOLUTE MONOCYTE [8]: 124.33 CELLS/uL
- ABSOLUTE SEGMENTED NEUTROPHIL [8]: 286.67 CELLS/uL
- BASOPHIL [8]: 0%
- EOSINOPHIL [8]: 0%
- ERYTHROCYTE COUNT [8]: 5.53 x10E6/uL
- HEMATOCRIT [8]: 34.77%
- HEMOGLOBIN [8]: 13.37 G/DL
- LEUKOCYTE COUNT [8]: 7.37 x10E3/uL
- LYMPHOCYTE [8]: 94.33%
- MEAN CORPUSCULAR HEMOGLOBIN [8]: 24.17 pg
- MEAN CORPUSCULAR HEMOGLOBIN CONCENTRATION [8]: 38.47 G/DL
- MEAN CORPUSCULAR VOLUME [8]: 62.87 fL
- MONOCYTE [8]: 1.67%
- NEUTROPHIL [8]: 4%
- NUCLEATED RED BLOOD CELLS [8]: 0 /100WBC
- PLATELET COUNT [8]: 1226.67 x10E3/uL
- ALANINE AMINOTRANSFERASE [8]: 57 u/L
- ALBUMIN [8]: 4.1 G/DL
- ALKALINE PHOSPHATASE [8]: 411.67 u/L
- ASPARTATE AMINOTRANSFERASE [8]: 105.33 u/L
- BLOOD UREA NITROGEN [8]: 10.33 mg/dL
- CARBON DIOXIDE [8]: 28.33 mmol/L
- CHLORIDE [8]: 99.33 MEQ/L
- CHOLESTEROL [8]: 26 mg/dL
- CREATINE PHOSPHOKINASE [8]: 332.33 u/L
- CREATININE [8]: 0.19 mg/dL
- GLUCOSE [8]: 169 mg/dL
- LACTATE DEHYDROGENASE [8]: 99.67 u/L
- LIPASE [8]: 30 u/L
- PHOSPHORUS [8]: 11.23 mg/dL
- POTASSIUM [8]: 5.86 MEQ/L
- SODIUM [8]: 144.43 MEQ/L
- TOTAL BILIRUBIN [8]: 0.1 mg/dL
- TOTAL PROTEIN [8]: 5.87 G/DL
- URIC ACID [8]: 1 mg/dL
